# Reference: ChEMBL document CHEMBL1122879, “Racemic and optically active 1,3,3-trimethyl-4-phenyl-4-(propionyloxy)piperidine” (1985)
# Assays:
# Type in all cases: functional
# [1] = organism: Rattus norvegicus; assay: Effective dose for antinociceptive activity in rats
# [2] = system: Mus musculus; assay: Effective dose for antinociceptive activity in mice hot plate test s.c.; conditions: sc
# [3] = system: Rattus norvegicus; assay: Effective dose for antinociceptive activity in rat tail-withdrawal test i.v.
Structure (SMILES),ED50 [1] [mg/kg],ED50 [2] [mg/kg],ED50 [3] [mg/kg]
CCC(=O)O[C@@]1(c2ccccc2)CCN(C)CC1(C)C,0.5,,
CCC(=O)OC1(c2ccccc2)CCN(C)CC1(C)C (racemic),,0.61,0.63
CCOC(=O)C1(c2ccccc2)CCN(C)CC1 [MEPERIDINE],,4.1,6.15
